Experiment: RP, Waters ACQUITY UPLC HSS T3, 150 × 2.1 mm, 1.8 µm, 40 °C, 0.28 mL/min, estimated dead time 1.2 min; A: water + 0.1% formic acid; B: methanol + 0.1% formic acid; gradient (min/%B) 0/0 1/0 3/10 18/40 21/100 25.5/100
Conditions: stereoisomer not certain

Row | Compound | LC retention time [min]
1 | O=C1c2c(O)cc(O)cc2OC(c2ccc(O)cc2)C1O (stereo not drawn) | 18.6
2 | COc1cc(-c2oc3cc(=[OH+])cc4occc(c2OC2OC(CO)C(O)C(O)C2O)c43)cc(OC)c1O (stereo not drawn) | 17.7
3 | COc1cc(-c2oc3cc(O)cc(O)c3c(=O)c2O)ccc1O | 21.2
4 | COc1cc(-c2oc3cc(O)cc(O)c3c(=O)c2O)cc(OC)c1O | 21.3
5 | CCOC(=O)c1cc(O)c(O)c(O)c1 | 14.2
6 | O=S(=O)(O)c1[nH]c2ccccc2c1CCO | 10.5
7 | O=c1c(O)c(-c2ccc(O)c(O)c2)oc2cc(O)cc(O)c12 | 20.8
8 | Oc1ccc(C=Cc2cc(O)cc(O)c2)cc1 | 20.4
9 | NC(Cc1ccccc1)C(=O)O (stereo not drawn) | 5.95
10 | COc1cc(C=CC(=O)OC(C(=O)O)C(O)C(=O)O)ccc1O (stereo not drawn) | 10.9
11 | O=C(OC1Cc2c(O)cc(O)cc2OC1c1cc(O)c(O)c(O)c1)c1cc(O)c(O)c(O)c1 (stereo not drawn) | 15.2
12 | O=C(C=Cc1ccc(O)c(O)c1)OC(C(=O)O)C(O)C(=O)O (stereo not drawn) | 7.71
13 | CCOC(=O)C=Cc1ccc(O)c(O)c1 | 20.7
14 | O=C(OC1Cc2c(O)cc(O)cc2OC1c1ccc(O)c(O)c1)c1cc(O)c(O)c(O)c1 (stereo not drawn) | 14.4
15 | O=C(O)C1OC(Oc2c(-c3ccc(O)cc3)oc3cc(O)cc(O)c3c2=O)C(O)C(O)C1O (stereo not drawn) | 20.2
16 | COc1cc(-c2oc3cc(=O)cc4oc(O)c(C=[OH+])c(c2OC2OC(CO)C(O)C(O)C2O)c43)cc(OC)c1O (stereo not drawn) | 18.6
17 | COc1cc(-c2oc3cc(O)cc(O)c3c(=O)c2O)cc(O)c1O | 20.9

Row | Compound | LC retention time [min]
18 | O=c1c(O)c(-c2ccc(O)cc2)oc2cc(O)cc(O)c12 | 21.2
19 | CC(C=CC1(O)C(C)=CC(=O)CC1(C)C)=CC(=O)O (stereo not drawn) | 20.6
20 | O=C(O)C(O)Cc1c[nH]c2ccccc12 (stereo not drawn) | 15.3
21 | O=C(O)c1cc(O)c(O)c(O)c1 | 6.83
22 | NC(Cc1c[nH]c2ccccc12)C(=O)O (stereo not drawn) | 8.26
23 | O=c1[nH]c(=O)c2[nH]cnc2[nH]1 | 3.94
24 | Cc1cc2nc3c(=O)[nH]c(=O)nc-3n(CC(O)C(O)C(O)CO)c2cc1C (stereo not drawn) | 14.6
25 | CC(C)CC(N)C(=O)O (stereo not drawn) | 4.21
26 | O=c1oc2c(O)c(O)cc3c(=O)oc4c(O)c(O)cc1c4c23 | 19.8
27 | NC(Cc1ccc(O)cc1)C(=O)O (stereo not drawn) | 4.05
28 | NC(CCC(=O)NC(CS)C(=O)NCC(=O)O)C(=O)O (stereo not drawn) | 2.46
29 | CC(C)(CO)C(O)C(=O)NCCC(=O)O (stereo not drawn) | 7.04
30 | CC(C)C(N)C(=O)O (stereo not drawn) | 2.07
31 | Oc1cc(O)c2c(c1)OC1(c3ccc(O)c(O)c3)Oc3cc(O)c4c(c3C2C1O)OC(c1ccc(O)c(O)c1)C(O)C4 (stereo not drawn) | 8.34
32 | O=C(O)C1CCCN1 (stereo not drawn) | 1.49
33 | O=C1c2c(O)cc(O)cc2OC(c2ccc(O)c(OC3OC(C(=O)O)C(O)C(O)C3O)c2)C1O (stereo not drawn) | 19

Continued, values first:

Row | LC retention time [min] | Compound
34 | 19.6 | COc1cc(-c2[o+]c3cc(O)cc(O)c3cc2OC2OC(COC(C)=O)C(O)C(O)C2O)cc(OC)c1O (stereo not drawn)
35 | 20.2 | COc1cc(-c2[o+]c3cc(O)cc(O)c3cc2OC2OC(COC(=O)C=Cc3ccc(O)cc3)C(O)C(O)C2O)cc(O)c1O (stereo not drawn)
36 | 14.6 | COc1cc(-c2[o+]c3cc(O)cc(O)c3cc2OC2OC(CO)C(O)C(O)C2O)ccc1O (stereo not drawn)
37 | 16.6 | O=C(O)C1OC(Oc2c(-c3cc(O)c(O)c(O)c3)oc3cc(O)cc(O)c3c2=O)C(O)C(O)C1O (stereo not drawn)
38 | 20 | O=C(C=Cc1ccc(O)cc1)OCC1OC(Oc2cc3c(O)cc(O)cc3[o+]c2-c2cc(O)c(O)c(O)c2)C(O)C(O)C1O (stereo not drawn)
39 | 18.1 | CC(=O)OCC1OC(Oc2cc3c(O)cc(O)cc3[o+]c2-c2ccc(O)c(O)c2)C(O)C(O)C1O (stereo not drawn)
40 | 14.8 | COc1cc(-c2[o+]c3cc(O)cc(O)c3cc2OC2OC(CO)C(O)C(O)C2O)cc(OC)c1O (stereo not drawn)
41 | 20.2 | O=c1cc2oc(-c3ccc(O)c(O)c3)c(OC3OC(COC(=[OH+])C=Cc4ccc(O)cc4)C(O)C(O)C3O)cc-2c(O)c1 (stereo not drawn)
42 | 11.3 | OCC1OC(Oc2cc3c(O)cc(O)cc3[o+]c2-c2cc(O)c(O)c(O)c2)C(O)C(O)C1O (stereo not drawn)
43 | 19.5 | COc1cc(-c2[o+]c3cc(O)cc(O)c3cc2OC2OC(COC(C)=O)C(O)C(O)C2O)ccc1O (stereo not drawn)
44 | 20.4 | COc1cc(-c2oc3cc(O)cc(O)c3c(=O)c2OC2OC(CO)C(O)C(O)C2O)cc(OC)c1O (stereo not drawn)
45 | 18.4 | COc1cc(-c2[o+]c3cc(O)cc(O)c3cc2OC2OC(COC(C)=O)C(O)C(O)C2O)cc(O)c1O (stereo not drawn)
46 | 16.9 | CC(=O)OCC1OC(Oc2cc3c(O)cc(O)cc3[o+]c2-c2cc(O)c(O)c(O)c2)C(O)C(O)C1O (stereo not drawn)
47 | 20.2 | O=c1c(OC2OC(CO)C(O)C(O)C2O)c(-c2ccc(O)cc2)oc2cc(O)cc(O)c12 (stereo not drawn)
48 | 13.3 | COc1cc(-c2[o+]c3cc(O)cc(O)c3cc2OC2OC(CO)C(O)C(O)C2O)cc(O)c1O (stereo not drawn)
49 | 20.4 | COc1cc(-c2[o+]c3cc(O)cc(O)c3cc2OC2OC(COC(=O)C=Cc3ccc(O)cc3)C(O)C(O)C2O)ccc1O (stereo not drawn)
50 | 20.3 | COc1cc(-c2oc3cc(O)cc(O)c3c(=O)c2OC2OC(CO)C(O)C(O)C2O)ccc1O (stereo not drawn)
51 | 17 | O=c1c(OC2OC(CO)C(O)C(O)C2O)c(-c2cc(O)c(O)c(O)c2)oc2cc(O)cc(O)c12 (stereo not drawn)
52 | 20.3 | COc1cc(-c2[o+]c3cc(O)cc(O)c3cc2OC2OC(COC(=O)C=Cc3ccc(O)cc3)C(O)C(O)C2O)cc(OC)c1O (stereo not drawn)
53 | 19.6 | COc1cc(-c2oc3cc(O)cc(O)c3c(=O)c2OC2OC(CO)C(O)C(O)C2O)cc(O)c1O (stereo not drawn)

From the RepoRT retention time repository (doi:10.1021/acs.jafc.0c00879)
